From ChEMBL document CHEMBL5154933, “Development of Lipo-γ-AA Peptides as Potent Antifungal Agents” (J Med Chem, 2022)
In brackets after ≈: the same amount, converted by molar mass. Activity calls are given as the source filed them. The calls are words filed in the database; no cut-off is given here.

How the values were obtained:
[1] = Hemolytic activity in human RBC incubated for 1 hr by microplate reader method; type: toxicity, cell-based, Erythrocyte; details: red blood cells (erythrocytes)
[2] = test system: Candida albicans; test: Antifungal activity against Candida albicans CA17 assessed as fungal growth inhibition by broth microdilution assay; type: functional
[3] = test system: Cryptococcus deuterogattii; test: Antifungal activity against Cryptococcus gattii VGII R265 assessed as fungal growth inhibition by broth microdilution assay; type: functional, Cryptococcus gattii species complex
[4] = Selectivity ratio of HC50 for hemolytic activity in human RBC to MIC for antifungal activity against Candida parapsilosis ATCC 22019; type: toxicity; details: red blood cells (erythrocytes)
[5] = Selectivity ratio of HC50 for hemolytic activity in human RBC to MIC for antifungal activity against Cryptococcus gattii R265; type: toxicity; details: red blood cells (erythrocytes)
[6] = Selectivity ratio of HC50 for hemolytic activity in human RBC to MIC for antifungal activity against Cryptococcus neoformans 5-FC; type: toxicity; details: red blood cells (erythrocytes)
[7] = test system: Candida parapsilosis; test: Antifungal activity against Candida parapsilosis ATCC 22019 assessed as fungal growth inhibition by broth microdilution assay; type: functional; details: Lodderomyces parapsilosis
[8] = Selectivity ratio of HC50 for hemolytic activity in human RBC to MIC for antifungal activity against Candida albicans SC5314; type: toxicity; details: red blood cells (erythrocytes)
[9] = test system: Cryptococcus neoformans; test: Antifungal activity against Cryptococcus neoformans 5-FC assessed as fungal growth inhibition by broth microdilution assay; type: functional
[10] = test system: Candida albicans; test: Antifungal activity against Candida albicans 28A assessed as fungal growth inhibition by broth microdilution assay; type: functional
[11] = Selectivity ratio of HC50 for hemolytic activity in human RBC to MIC for antifungal activity against Candida krusei ATCC6258; type: toxicity; details: red blood cells (erythrocytes)
[12] = Selectivity ratio of HC50 for hemolytic activity in human RBC to MIC for antifungal activity against Cryptococcus neoformans H99; type: toxicity; details: red blood cells (erythrocytes)
[13] = test system: Cryptococcus neoformans; test: Antifungal activity against Cryptococcus neoformans H99 assessed as fungal growth inhibition by broth microdilution assay; type: functional
[14] = test system: Candida albicans; test: Antifungal activity against Candida albicans CARG5 assessed as fungal growth inhibition by broth microdilution assay; type: functional
[15] = test system: Candida albicans; test: Antifungal activity against Candida albicans SC5314 assessed as fungal growth inhibition by broth microdilution assay; type: functional
[16] = Selectivity ratio of HC50 for hemolytic activity in human RBC to MIC for antifungal activity against Candida albicans 28A; type: toxicity; details: red blood cells (erythrocytes)
[17] = Selectivity ratio of HC50 for hemolytic activity in human RBC to MIC for antifungal activity against Candida albicans CARG5; type: toxicity; details: red blood cells (erythrocytes)
[18] = test system: Pichia kudriavzevii; test: Antifungal activity against Candida krusei ATCC6258 assessed as fungal growth inhibition by broth microdilution assay; type: functional
[19] = Selectivity ratio of HC50 for hemolytic activity in human RBC to MIC for antifungal activity against Candida albicans CA17; type: toxicity; details: red blood cells (erythrocytes)
[20] = test system: Cell membrane; test: Induction of membrane permeabilization in Candida albicans SC5314 assessed as distruption of fungal cell membrane by measuring PI positive cells at 8 times MIC measured after 1 hrs by propidium iodide and DAPI staining based fluorescence microscopic analysis; type: subcellular
[21] = test system: Mucor racemosus; test: Antifungal activity against Mucor racemosus R715 assessed as fungal growth inhibition by broth microdilution assay; type: functional
[22] = test system: Mucor racemosus; test: Antifungal activity against Mucor racemosus MZ140 assessed as fungal growth inhibition by broth microdilution assay; type: functional
[23] = test system: Aspergillus fumigatus; test: Antifungal activity against Aspergillus fumigatus AF293 assessed as fungal growth inhibition by broth microdilution assay; type: functional
[24] = test system: Aspergillus fumigatus; test: Antifungal activity against Aspergillus fumigatus shjt40 assessed as fungal growth inhibition by broth microdilution assay; type: functional

MIC50 [2] [µg/mL] | MIC50 [3] [µg/mL] | MIC50 [7] [µg/mL] | MIC50 [9] [µg/mL] | MIC50 [10] [µg/mL] | MIC50 [13] [µg/mL] | MIC50 [14] [µg/mL] | MIC50 [15] [µg/mL] | MIC50 [18] [µg/mL] | SMILES | HC50 at 1 h [1] [µg/mL] | selectivity ratio [4] | selectivity ratio [5] | selectivity ratio [6] | selectivity ratio [8] | selectivity ratio [11] | selectivity ratio [12] | selectivity ratio [16] | selectivity ratio [17] | selectivity ratio [19] | other results
4 (≈ 6.2 µM) | 4 (≈ 6.2 µM) | 2 (≈ 3.1 µM) | 4 (≈ 6.2 µM) | 4 (≈ 6.2 µM) | 4 (≈ 6.2 µM) | 4 (≈ 6.2 µM) | 4 (≈ 6.2 µM) | 2 (≈ 3.1 µM) | CCCCCCCCCCCCCCCC(=O)N[C@@H](CCCCN)C(=O)N[C@@H](Cc1ccccc1)CN(CC(N)=O)C(=O)CCN | > 250 | ≤ 125 | ≤ 125 | ≤ 125 | ≤ 125 | ≤ 125 | ≤ 125 | ≤ 125 | ≤ 125 | ≤ 125 | 
8 (≈ 12.7 µM) | 8 (≈ 12.7 µM) | 4 (≈ 6.34 µM) | 8 (≈ 12.7 µM) | 8 (≈ 12.7 µM) | 8 (≈ 12.7 µM) | 8 (≈ 12.7 µM) | 4 (≈ 6.34 µM) | 4 (≈ 6.34 µM) | CCCCCCCCCCCCCCCC(=O)N[C@@H](CCCCN)C(=O)N[C@@H](Cc1ccccc1)CN(CC(N)=O)C(=O)CN | > 250 | ≤ 125 | ≤ 125 | ≤ 125 | ≤ 125 | ≤ 125 | ≤ 125 | ≤ 125 | ≤ 125 | ≤ 125 | 
 |  |  |  |  |  |  |  |  | C[C@@H]1[C@H](O)[C@@H](C)/C=C/C=C/C=C/C=C/C=C/C=C/C=C/[C@H](O[C@@H]2O[C@H](C)[C@@H](O)[C@H](N)[C@@H]2O)C[C@@H]2O[C@](O)(C[C@@H](O)C[C@@H](O)[C@H](O)CC[C@@H](O)C[C@@H](O)CC(=O)O[C@H]1C)C[C@H](O)[C@H]2C(=O)O |  |  |  |  |  |  |  |  |  |  | Activity [20]: Active
 |  |  |  |  |  |  |  |  | CCC(C)n1ncn(-c2ccc(N3CCN(c4ccc(OCC5COC(Cn6cncn6)(c6ccc(Cl)cc6Cl)O5)cc4)CC3)cc2)c1=O (stereo not drawn) [ITRACONAZOLE] |  |  |  |  |  |  |  |  |  |  | MIC50 [21]: 1 µg/mL (≈ 1.42 µM); MIC50 [22]: 1 µg/mL (≈ 1.42 µM); MIC50 [23]: 1 µg/mL (≈ 1.42 µM); MIC50 [24]: > 32 µg/mL
